Measurements from PubChem BioAssay (NCI).
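Cells were grown in 96-well plates and exposed to each compound for 48 hours at five concentrations; endpoints were interpolated linearly between bracketing concentrations, or set to the highest concentration if not reached. TGI denotes the concentration required for complete inhibition of growth.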

Legend:
Assay in all cases: NCI anticancer screen, dose series, 48 h
SK-MEL-5 melanoma = system: SK-MEL-5 melanoma
MOLT-4 leukemia = system: MOLT-4 leukemia
MDA-N = system: MDA-N
HT29 colon = system: HT29 colon
SF-295 CNS = system: SF-295 CNS
IGROV1 ovarian = system: IGROV1 ovarian
NCI-H226 lung = system: NCI-H226 lung
M14 melanoma = system: M14 melanoma
SF-268 CNS = system: SF-268 CNS
CCRF-CEM leukemia = system: CCRF-CEM leukemia
SK-MEL-28 melanoma = system: SK-MEL-28 melanoma
LOX IMVI melanoma = system: LOX IMVI melanoma
CAKI-1 renal = system: CAKI-1 renal
UACC-62 melanoma = system: UACC-62 melanoma
SN12C renal = system: SN12C renal
HOP-92 NSCLC = system: HOP-92 NSCLC
NCI-H23 lung = system: NCI-H23 lung
OVCAR-5 ovarian = system: OVCAR-5 ovarian
SNB-75 CNS = system: SNB-75 CNS
A498 renal = system: A498 renal

Compound	TGI (SK-MEL-5 melanoma) [µM]	TGI (MOLT-4 leukemia) [µM]	TGI (MDA-N) [µM]	TGI (HT29 colon) [µM]	TGI (SF-295 CNS) [µM]	TGI (IGROV1 ovarian) [µM]	TGI (NCI-H226 lung) [µM]	TGI (M14 melanoma) [µM]	TGI (SF-268 CNS) [µM]	TGI (CCRF-CEM leukemia) [µM]	TGI (SK-MEL-28 melanoma) [µM]	TGI (LOX IMVI melanoma) [µM]	TGI (CAKI-1 renal) [µM]	TGI (UACC-62 melanoma) [µM]	TGI (SN12C renal) [µM]	TGI (HOP-92 NSCLC) [µM]	TGI (NCI-H23 lung) [µM]	TGI (OVCAR-5 ovarian) [µM]	TGI (SNB-75 CNS) [µM]	TGI (A498 renal) [µM]
Cc1ccc(N=NN(C)C(=O)C(C)N)cc1 (stereo not drawn)	> 100	> 100	> 100	> 100	> 100	> 100	> 100	> 100	> 100	> 100	> 100	> 100	> 100	> 100	> 100	> 100	> 100	> 100	> 100	
CN(C)C=NCCN1CCOCC1	> 100	> 100	> 100	> 100	> 100	> 100	> 100	> 100	> 100	> 100	> 100	> 100		> 100	> 100	> 100	> 100	> 100	> 100	> 100
C=CC(Br)(CBr)CCC(Br)C(C)(C)Cl (stereo not drawn)	23.4	4.05	8.34	2.9	3.6	12.8	52.9	14.6	4.51	7.45	6			17.3	16.5	4.32	12.9	14.5	8.72	9.46
NC(=O)C(=O)C(c1ccccc1)S(=O)(=O)Cc1ccccc1 (stereo not drawn)	> 100	> 100	> 100	> 100	> 100	> 100	> 100	> 100	> 100	> 100	> 100	> 100	> 100	> 100	> 100	> 100	> 100	> 100	> 100	
O=c1c2cc(Cl)ccc2[nH]c2cc(O)cc(O)c12	> 10	> 10	> 10	> 10	> 10	> 10	> 10	> 10	> 10	> 10	> 10		> 10	> 10	> 10	> 10	> 10	> 10	> 10	> 10
CCOC(=O)c1nc2ccccc2nc1Oc1cc(OC)c(OC)c(OC)c1	> 100	> 100	> 100	> 100	> 100	> 100		> 100	> 100	> 100	> 100	> 100	> 100	> 100	> 100	> 100	> 100	> 100	> 100	> 100
